Measurements taken from article PMC9254699 (Biomaterials science, 2021).
No end group written: not given here.

Columns and labels:
[1] = tested on: ALK5 (TβRI); conditions: cited from earlier work
[2] = deemed target-related; cited from earlier work
[3] = tested on: off-target kinases; conditions: cited from earlier work
[4] = tested on: activin receptor ALK4; conditions: cited from earlier work
[5] = tested on: activin receptor ALK7; conditions: cited from earlier work
[6] = tested on: CK1δ; conditions: cited from earlier work
[7] = tested on: RIPK2; conditions: cited from earlier work
[8] = tested on: p38MAPK; conditions: cited from earlier work
[9] = target: T1, TGF-β1 (Homo sapiens, UniProt P01137); conditions: cited from earlier work
T1 sequence (P01137 279-390 limits assumed, species assumed): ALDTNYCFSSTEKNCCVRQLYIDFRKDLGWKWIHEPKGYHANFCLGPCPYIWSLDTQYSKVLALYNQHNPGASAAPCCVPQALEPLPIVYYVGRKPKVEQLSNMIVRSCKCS

[10] = target: T1, TGF-β1; conditions: cited from earlier work; remark: listed apart in the source
[11] = target: T1, TGF-β1; test: surface plasmon resonance; format: binding; conditions: for kon: read-out: association rate constant ka; for koff: read-out: dissociation rate constant kd
[12] = tested on: mouse T-lymphocyte HT-2 cells; test: HT-2 T-lymphocyte proliferation assay; format: cell-based
[13] = tested on: human umbilical vein endothelial cells (HUVECs); test: HUVEC proliferation assay; format: cell-based; conditions: HUVEC (Fig. S5)
[14] = tested on: mouse T-lymphocyte HT-2 cells; conditions: cited from earlier work

Compound: Cc1cccc(-c2nn3c(c2-c2ccnc4ccc(C(N)=O)cc24)CCC3)n1 [Galunisertib]
- inhibition of TβRI by galunisertib [1]: small molecule inhibitor of TβRI
- cardiac toxicity in preclinical development [2]: cardiac toxicities identified during preclinical development
- activity against off-target kinases [3]: strong activity against off-target kinases

Compound: NC(=O)c1ccc(-c2nc(-c3ccc4c(c3)OCO4)c(-c3ccccn3)[nH]2)cc1 [SB-431542]
- inhibition of ALK5 (TβRI) [1]: small molecule inhibitor of ALK5 (TβRI)
- activity against ALK4 [4]: activity against activin receptors ALK4
- activity against ALK7 [5]: activity against activin receptors ALK4 and ALK7
- activity against CK1δ [6]: activity
- activity against RIPK2 [7]: activity
- activity against p38MAPK [8]: activity

Compound: CCCCc1nc(Cl)c(CO)n1Cc1ccc(-c2ccccc2-c2nn[nH]n2)cc1 [losartan, reference compound]
- direct binding to TGF-β1 or its receptors [9]: do not directly bind TGF-β1 or its receptors
- activity against TGF-β1, preclinical anti-fibrotic [10]: activity against TGF-β1

Compound: Cc1ccc(C(=O)Nc2ccc(S(=O)(=O)O)c3cc(S(=O)(=O)O)cc(S(=O)(=O)O)c23)cc1NC(=O)c1cccc(NC(=O)Nc2cccc(C(=O)Nc3cc(C(=O)Nc4ccc(S(=O)(=O)O)c5cc(S(=O)(=O)O)cc(S(=O)(=O)O)c45)ccc3C)c2)c1 [suramin, reference compound]
- direct binding to TGF-β1 or its receptors [9]: do not directly bind TGF-β1 or its receptors
- activity against TGF-β1, preclinical anti-fibrotic [10]: activity against TGF-β1

Compound: CIAEIDLIPRDRPF [RIPΔ]
- kon [11]: 192000 M⁻¹ s⁻¹
- koff [11]: 0.0199 s⁻¹

Compound: CIAEIDLIPRDRPFV [RIP]
- kon [11]: 140000 M⁻¹ s⁻¹
- koff [11]: 0.00836 s⁻¹

Compound: CLIDFRIPADREVPI [Scrambled RIP]
- kon [11]: 68500 M⁻¹ s⁻¹
- koff [11]: 0.0352 s⁻¹

Compound: CPQLGKFGDVRF [RIIP-1]
- effect on HT-2 proliferation (fluorescence) vs own scrambled control ([12]; 10 μM soluble peptide, 0.1 ng/mL TGF-β1 (Fig. 2b)): not statistically different between RIIP-1 and its scrambled control

Compound: TGF-β1: most abundant TGF-β isoform in adult tissues and platelets
- IC50 of TGF-β1 in the HT-2 proliferation assay ([12]; IL-4 dependent proliferation, fluorescence-based cell viability assay): 0.05 ng/mL
- IC50 ([12]; read-out: IC50 of TGF-β1 in the HT-2 proliferation assay (molar), IL-4 dependent proliferation, fluorescence-based cell viability assay): 3.9 pM
- inhibition of IL-4 dependent HT-2 proliferation by TGF-β1 ([12]; soluble TGF-β1, fluorescence-based cell viability assay (Fig. 2a)): inhibited IL-4 dependent proliferation in a dose dependent manner
- TGF-β1 concentration of highest inhibition of HUVEC proliferation [13]: 41 pg/mL
- TGF-β1 concentration of highest inhibition of HUVEC proliferation (molar) [13]: 3.2 pM
- TGF-β1 concentration range suppressing HUVEC proliferation [13]: 10 to 1000 ng/mL
- published IC50 value of TGF-β1 in HT-2 assay [14]: 0.04 to 0.2 ng/mL

Compound: relaxin
- direct binding to TGF-β1 or its receptors [9]: do not directly bind TGF-β1 or its receptors
- activity against TGF-β1, preclinical anti-fibrotic [10]: activity against TGF-β1
